The source of these data is BindingDB's records for PubMed 8930187 (Leiden University, 1996).

The experiment addresses Gamma-aminobutyric acid receptor subunit alpha-1 (Rattus norvegicus, UniProt P62813).

Structures are written as SMILES.

Sequence of Gamma-aminobutyric acid receptor subunit alpha-1 (P62813 whole entry): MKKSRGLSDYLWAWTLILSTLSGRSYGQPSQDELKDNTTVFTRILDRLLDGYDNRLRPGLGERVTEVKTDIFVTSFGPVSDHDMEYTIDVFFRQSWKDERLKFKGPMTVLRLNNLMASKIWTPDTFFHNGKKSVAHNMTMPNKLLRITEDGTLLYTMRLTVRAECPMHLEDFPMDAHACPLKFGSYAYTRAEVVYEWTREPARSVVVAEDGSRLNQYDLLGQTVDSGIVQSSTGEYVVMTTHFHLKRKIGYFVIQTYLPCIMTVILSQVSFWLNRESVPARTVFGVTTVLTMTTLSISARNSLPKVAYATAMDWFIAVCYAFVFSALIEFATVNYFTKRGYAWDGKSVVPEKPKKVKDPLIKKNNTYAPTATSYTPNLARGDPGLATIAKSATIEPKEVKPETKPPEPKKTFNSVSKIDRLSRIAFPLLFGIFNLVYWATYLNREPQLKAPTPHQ

Take `O=C1CN=C(c2ccccc2Cl)c2cc([N+](=O)[O-])ccc2N1` [5-(2-chlorophenyl)-7-nitro-1,3-dihydro-2H-1,4-benzodiazepin-2-one]: the Ki is 27 nM. As to `Cc1ncc2n1-c1ccc(Cl)cc1C(c1ccccc1F)=NC2` [12-chloro-9-(2-fluorophenyl)-3-methyl-2,4,8-triazatricyclo[8.4.0.0^{2,6}]tetradeca-1(10),3,5,8,11,13-hexaene], the affinity, expressed as Ki, was 26 nM. The Ki values of the last two compounds are within 1.5-fold of each other. Compound `O=C1Nc2ccc(Cl)cc2C(c2ccccc2)=NC1O` (centres undefined) [CAS_604-75-1] registered a Ki of 350 nM. In the case of `CN1C(=O)CN=C(c2ccccc2F)c2cc([N+](=O)[O-])ccc21` [Flunitrazepam], the Ki worked out at 29 nM. This Ki lies about 12-fold lower than the previous one.
